Results from PMC9706563, “Development of Macrocyclic PRMT5–Adaptor Protein Interaction Inhibitors” (Journal of Medicinal Chemistry, 2022).
“Also recorded” adds a separate entry of the source. Read-outs that look alike come from different tables or passages of the source. Each block holds one compound with its values, some of them ahead of it. Square brackets hold non-standard residues; d marks the D form. Peptide text beside a SMILES is read from it. * marks the point of attachment. FITC = O=C1OC2(c3ccc(O)cc3Oc3cc(O)ccc32)c2ccc(NC(=S)*)cc21; hPhe = N[C@@H](CCc1ccccc1)C(=O)O

Experiments:
[1] = biological target: T1, PRMT5-MEP50 (Homo sapiens, UniProt O14744); assay: Competitive binding FP assay, compound 21 as tracer
T1 construct: The compounds were tested by means of FP with the full-length PRMT5-MEP50 complex; made in house
T1 sequence (O14744 whole entry): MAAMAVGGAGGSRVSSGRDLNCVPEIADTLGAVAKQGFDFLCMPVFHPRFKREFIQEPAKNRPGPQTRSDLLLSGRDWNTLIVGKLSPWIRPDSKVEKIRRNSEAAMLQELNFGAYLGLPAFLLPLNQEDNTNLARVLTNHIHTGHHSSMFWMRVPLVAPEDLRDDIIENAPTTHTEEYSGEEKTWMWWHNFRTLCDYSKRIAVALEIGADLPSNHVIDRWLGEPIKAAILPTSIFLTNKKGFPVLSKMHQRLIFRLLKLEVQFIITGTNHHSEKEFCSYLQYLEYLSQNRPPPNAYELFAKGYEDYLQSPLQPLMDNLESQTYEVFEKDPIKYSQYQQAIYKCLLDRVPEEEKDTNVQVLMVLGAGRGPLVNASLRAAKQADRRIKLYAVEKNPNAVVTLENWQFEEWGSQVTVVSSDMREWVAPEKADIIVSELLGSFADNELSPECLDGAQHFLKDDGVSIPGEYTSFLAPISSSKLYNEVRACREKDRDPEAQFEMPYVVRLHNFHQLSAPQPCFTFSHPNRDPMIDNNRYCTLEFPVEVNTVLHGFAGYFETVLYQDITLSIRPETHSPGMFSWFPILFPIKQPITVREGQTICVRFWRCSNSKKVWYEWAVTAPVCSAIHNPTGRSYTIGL
T1 sequence (Q9BQA1 whole entry partner): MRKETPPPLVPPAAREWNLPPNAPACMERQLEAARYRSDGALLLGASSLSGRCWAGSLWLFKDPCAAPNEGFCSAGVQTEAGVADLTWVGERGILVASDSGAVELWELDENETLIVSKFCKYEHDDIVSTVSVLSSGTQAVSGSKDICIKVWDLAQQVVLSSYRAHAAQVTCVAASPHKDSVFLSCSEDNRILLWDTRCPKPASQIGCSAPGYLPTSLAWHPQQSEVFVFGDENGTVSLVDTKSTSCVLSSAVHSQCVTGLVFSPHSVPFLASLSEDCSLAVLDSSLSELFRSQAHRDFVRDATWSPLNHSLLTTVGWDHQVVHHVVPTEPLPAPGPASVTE
Method: (§1) The competitive binding assay was performed in a buffer of 50 mM HEPES, 250 mM NaCl, 1 mM TCEP, and 0.01% (v/v) Tween 20, 8.0 pH, in black, 384-well plates with a total volume of 10 μL per well. The FITC-labeled peptides or the Alexa 488-labeled pICln protein, at a final concentration of 1 nM, were mixed with PRMT5-MEP50 (at a final concentration of 194 nM when used with peptide 50, 600 nM with compound S1 [see Table S3] and 21, and 27 nM in the case of Alexa 488-labeled pICln), and the appropriate nonlabeled peptide or protein was titrated as two-fold dilution series. The plates were incubated at room temperature for up to 1 h 45 min and analyzed on a plate reader using 485 nm excitation and 535 nm emission wavelength. The experiment was performed in triplicate.

[2] = biological target: T1, PRMT5-MEP50; assay: Competitive binding FP assay, FITC-labeled 50 as tracer
Method: as §1

[3] = Stability assay in cell lysate; assay type: in vitro ADME
Method: To the whole cell lysate prepared from U2OS cells with the freeze–thaw method was added the appropriate peptide, resulting in a mixture of 0.5 mg/mL protein and 600 μM peptide in PBS, and incubated at 37 °C. The samples were taken at 0, 15, 30 min, 1, 2, 4 h, 1, 3, and 7-days time points and mixed with an equal volume of ice-cold ethylparaben solution in MeOH (0.1 mg/mL), used as the internal standard. The samples were kept on ice for 15 min and centrifuged at 16,873 × g at 4 °C for 5 min. The obtained supernatant was then analyzed by HPLC, the peptide and the internal standard peaks at 210 nm were integrated, and the ratio of the peptide peak surface area to the internal standard was calculated. The experiment was conducted in duplicate.

[4] = biological target: T2, PRMT5-MEP50 + pICln (Homo sapiens, UniProt O14744); assay: Competitive FP assay with Alexa 488-labeled full-length human pICln; assay type: binding
T2 construct: made in house
T2 sequence (O14744 whole entry): as the sequence (O14744 whole entry) above
T2 sequence (Q9BQA1 whole entry partner): as the sequence (Q9BQA1 whole entry partner) above
Method: To a solution of the full-length pICln protein (ca. 1 mg/mL) in 0.2 M bicarbonate buffer with 1 mM TCEP at pH 8.3 was added 10 mM Alexa […] in DMSO (8 equiv). The solution was kept on ice under dark conditions overnight. The protein was washed 8–10 times with a buffer intended for the fluorescence polarization assay (50 mM HEPES, 250 mM NaCl, 1 mM TCEP, 8.0 pH) using an Amicon Ultra-0.5 mL spin filter (Merck, Germany). Protein concentration was determined using the NanoDrop spectrophotometer.
The competitive binding assay was performed in a buffer of 50 mM HEPES, 250 mM NaCl, 1 mM TCEP, and 0.01% (v/v) Tween 20, 8.0 pH, in black, 384-well plates with a total volume of 10 μL per well. […] The plates were incubated at room temperature for up to 1 h 45 min and analyzed on a plate reader using 485 nm excitation and 535 nm emission wavelength. The experiment was performed in triplicate.

[5] = biological target: T3, TIM-MEP50 complex (Homo sapiens, UniProt O14744); assay: Thermal shift assay (TSA); assay type: binding; conditions: for TSA Average Tm (°C): supplementary CSV; for increase of the average melting temperature: TSA, PRMT5 TIM barrel-MEP50 complex, n = 6
T3 construct: made in house
T3 sequence (O14744 13-292 limits assumed): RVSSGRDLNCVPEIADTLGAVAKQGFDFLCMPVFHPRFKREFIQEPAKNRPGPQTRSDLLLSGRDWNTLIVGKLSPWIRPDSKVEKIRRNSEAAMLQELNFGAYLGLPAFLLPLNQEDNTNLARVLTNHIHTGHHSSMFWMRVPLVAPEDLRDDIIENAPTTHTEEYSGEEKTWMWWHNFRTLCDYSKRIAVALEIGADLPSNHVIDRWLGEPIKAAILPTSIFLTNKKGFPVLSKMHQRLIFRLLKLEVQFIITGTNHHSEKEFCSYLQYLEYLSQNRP
T3 sequence (Q9BQA1 whole entry partner): as the sequence (Q9BQA1 whole entry partner) above
Method: Thermal Shift Assays of peptides on the TIM-MEP50 complex were carried out in a 96-well PCR plate (LightCycler 480 Multiwell Plates 96, white, 04729692001). The purified protein complex was appropriately diluted in a buffer containing 50 mM HEPES (pH = 8.0), 250 mM NaCl, and 1 mM TCEP. All assay experiments used 5.36 μg of protein per well and […] 5000X Sypro Orange (Invitrogen) up to a total volume of 25 μL, with a resultant protein concentration of 3 μM and 5X SYPRO. Peptides were supplied at 10 mM concentration in DMSO. The PCR plates were sealed with an optical seal (LightCycler 480 Sealing Foil, 04729757001), shaken, and centrifuged after protein and compounds were added. Thermal scanning (25–95 °C at 1 °C/min) was performed using a real-time PCR setup (LightCycler 480 – Roche), and fluorescence intensity was measured after every temperature increment step. Analysis of the raw data was performed using internally developed software. Statistical validation of Tm shift relevance was performed using the Student’s t test (n = 6).

[6] = biological target: T1, PRMT5-MEP50; assay: MTase-Glo methyltransferase activity assay; assay type: biochemical; conditions: H4 histone tail peptide substrate
Method: The assay was performed in 1× reaction buffer of 20 mM Tris, 50 mM NaCl, 1 mM EDTA, 3 mM MgCl2, 0.1 mg/mL BSA, and 1 mM DTT at pH = 8.0 in white, 384-well plates. […] The plate was incubated at 20–21 °C for 1 h. MTase-Glo detection solution (5 μL) was added, and the plate was incubated at 20–21 °C for 1 h, followed by a luminescence measurement at a plate reader. The experiment was performed in triplicate.

[7] = biological target: T4, PRMT5-MEP50 / RioK1 interaction (Homo sapiens, UniProt O14744); assay: GFP immunopurification from Flp-In T-REx 293 S100 extracts, RioK1 readout; assay type: binding; conditions: 50 μM
T4 construct: expressed in transfected cells; host or cells: Flp-In T-REx 293
T4 sequence (O14744 whole entry): as the sequence (O14744 whole entry) above
T4 sequence (Q9BQA1 whole entry partner): as the sequence (Q9BQA1 whole entry partner) above
Method: (§2) Harvested Flp-In T-Rex 293 cells were incubated with Roeder A buffer[32] in three times sample weight for 10 min at room temperature, dounced 10 times, and adjusted to 150 mM NaCl. After centrifugation at 17,000 g for 30 min, the supernatants (S100 extracts) were used for immunopurification and treatment with inhibitors.
(§3) For the treatment, the S100 extracts of GFP, GFP-PRMT5, GFP-RioK1, and GFP-pICln were incubated with DMSO, active 53, and scrambled 54, used at a concentration of 50 μM. The incubation with the S100 extract was carried out for 1 h at room temperature. For GFP immunopurification, S100 extracts were incubated with GFP-Trap_A beads (ChromoTek) at 4 °C for 2 h with rotation. Purified proteins were washed 3 times with washing buffer (150 mM NaCl, 50 mM Tris/HCl pH 7.5, 1 mM EDTA, 1 mM EGTA, and 0.01% Igepal with protease inhibitors), eluted in sample buffer [375 mM Tris pH 7.5; 25.8% (w/v) glycerol; 12.3% (w/v) SDS; 0.06% (w/v) bromophenol blue; and 6% (v/v) β-mercaptoethanol; pH 6.8], and analyzed by immunoblotting.
(§4) Immunopurification samples were separated by Tris/Tricine or Tris/Glycine SDS gel electrophoresis[33] and transferred to PVDF membranes (Immobilon-FL, Merck Millipore). The immunoblot analysis was performed using the indicated antibodies against RioK1, PRMT5, MEP50, pICln, and GFP, and the signals were detected with an Odyssey LI-COR Imaging System.

[8] = biological target: T5, PRMT5-MEP50 complex (Homo sapiens, UniProt O14744); assay: Pull-down with peptides immobilized on DBCO beads, MCF7 cell lysate; assay type: binding; conditions: for enrichment of the PRMT5-MEP50 complex by immobilized peptide: MCF7 cell lysate, DBCO beads, western blot
T5 construct: endogenous in cells; host or cells: MCF7
T5 sequence (O14744 whole entry): as the sequence (O14744 whole entry) above
T5 sequence (Q9BQA1 whole entry partner): as the sequence (Q9BQA1 whole entry partner) above
Method: DBCO agarose beads (300 μL; Jena Bioscience, Germany) were washed three times with PBS (600 μL, pH 7.4). To the beads suspended in PBS (600 μL) was added a 10 mM solution of azide-labeled peptide in DMSO or pure DMSO. The obtained suspensions were incubated overnight at 4 °C. The beads were washed with PBS three times for 10 min. MCF7 cells were harvested and lysed using Triton X100 lysis buffer (NaCl 150 mM, HEPES 25 mM, TCEP 1 mM, 1% Triton x100, 1% NP40 alternative, protease, and phosphatase inhibitor, pH 7.4). Empty beads, beads bound to an active peptide (55), or beads bound to a scrambled peptide (56) were added to the lysate (6 mg/mL) and rotated at 4 °C overnight. Beads attached to the active peptides were also incubated in the lysate containing a nonimmobilized/free active macrocycle (53 at 100 μM). Beads were collected by centrifugation (800g for 1 min) and washed three times for 10 min with PBS (500 μL). The beads were suspended in SDS-PAGE protein loading buffer (20 uL; […], 8% v/v glycerol, 2% SDS, […] (DTE), 0.02% bromophenol blue, pH 6.8), heated with shaking for 10 min at 95 °C, and centrifuged at 350 rpm. The obtained solutions were analyzed by western blotting using 10% acrylamide gels, and PVDF membranes and the relevant proteins were fluorescently detected using antibodies against PRMT5 and MEP50 and the corresponding secondary IRDye antibodies.

[9] = biological target: T6, PRMT5-MEP50 / pICln interaction (Homo sapiens, UniProt O14744); assay: GFP immunopurification from Flp-In T-REx 293 S100 extracts, pICln readout; assay type: binding; conditions: 50 μM
T6 construct: expressed in transfected cells; host or cells: Flp-In T-REx 293
T6 sequence (O14744 whole entry): as the sequence (O14744 whole entry) above
T6 sequence (Q9BQA1 whole entry partner): as the sequence (Q9BQA1 whole entry partner) above
Method: as §2, §3, §4

[10] = biological target: T1, PRMT5-MEP50; assay: Direct binding fluorescence polarization (FP) assay of FITC-labeled peptides; conditions: supplementary CSV, read-out: PRMT5-MEP50 Kd
Method: The assay was performed in a buffer of 50 mM 4-(2-hydroxyethyl)-1-piperazineethanesulfonic acid (HEPES), 250 mM NaCl, 1 mM tris(2-carboxyethyl)phosphine (TCEP), and 0.01% (v/v) Tween 20, pH 8.0, in black, 384-well plates with a total volume of 10 μL per well. […] The plates were incubated at room temperature for 1 to 2 h and analyzed on a plate reader using 485 nm excitation and 535 nm emission wavelength. The assay was performed in triplicate.

Compound: CC(=O)N[C@H](C(=O)N1CCC[C@H]1C(=O)NC1CCCCC[C@@H](C(=O)N[C@@H](CC(=O)O)C(=O)N[C@@H](C)C(=O)N[C@@H](CC(=O)O)C(N)=O)NC(=O)[C@H](Cc2ccccc2)NC(=O)[C@H](CCC(N)=O)NC1=O)C(C)C (stereo in doubt) [Compound 30]
IC50 ([1]; competitive FP, compound 21 as tracer, 600 nM PRMT5-MEP50): 1.17 ± 0.29 µM
Ki ([1]; from competitive FP with tracer 21): 0.313 ± 0.121 µM
IC50 ([2]; competitive FP, compound 50 as tracer, 194 nM PRMT5-MEP50): 1.06 ± 0.24 µM
half-life ([3]; U2OS cell lysate, 37 °C, 600 μM peptide, read-out: half-life (converted)): 299 h
increase of half-life over the linear 31 ([3]; cell lysate, 37 °C): 70 fold
Half-llife in Lysate ([3]; supplementary CSV): 12.5 days
IC50 ([4]; competition with labeled pICln, supplementary CSV, read-out: PRMT5-MEP50 + pICln IC50): 3.2 ± 2.4 µM
TSA Average Tm (°C) [5]: 51.32 ± 0.00 °C
effect on direct methylation activity of PRMT5 [6]: has no effect; also recorded: does not interfere with the direct methylation activity of the enzyme

Compound: CC(=O)N[C@H](C(=O)N1CCC[C@H]1C(=O)NC1CCCCC[C@@H](C(=O)N[C@@H](CC(=O)O)C(=O)N[C@@H](C)C(=O)N[C@@H](CC(C(=O)O)C(=O)O)C(N)=O)NC(=O)[C@H](Cc2ccc([N+](=O)[O-])cc2)NC(=O)[C@H](CCC(N)=O)NC1=O)C(C)C (stereo in doubt) [Compound 53]
enrichment of RioK1 with GFP-PRMT5 ([7]; GFP-PRMT5 IP): enrichment of RioK1 was blocked
interaction of RioK1 with PRMT5-MEP50 ([7]; GFP-RioK1 IP): fully inhibited RioK1 from interacting with the PRMT5-MEP50 complex
increase of the average melting temperature [5]: 2.27 °C
TSA Average Tm (°C) [5]: 51.75 ± 0.42 °C
competition of free peptide with immobilized 55 ([8]; 100 μM nonimmobilized peptide in MCF7 lysate): demonstrated competition between the immobilized and free peptide
binding of pICln to the complex with GFP-PRMT5 ([9]; GFP-PRMT5 IP): binding of pICln to the complex was not inhibited
interaction of pICln with PRMT5-MEP50 ([9]; GFP-pICln IP): pICln still engaged with it

Compound: CC(=O)N1CCC[C@H]1C(=O)N[C@H](C(=O)N[C@@H]1CCCCC[C@@H](C(=O)N[C@@H](Cc2ccc([N+](=O)[O-])cc2)C(=O)N[C@@H](CC(C(=O)O)C(=O)O)C(=O)N[C@@H](CCC(N)=O)C(N)=O)NC(=O)[C@H](CC(=O)O)NC(=O)[C@H](C)NC1=O)C(C)C [Compound 54]
Ki ([2]; from competitive FP with tracer 50): n.b.
PRMT5-MEP50 Ki (µM) ([2]; from competitive FP with tracer 50, supplementary CSV): nb
IC50 ([4]; competition with Alexa 488-labeled pICln, 27 nM PRMT5-MEP50): did not compete
PRMT5-MEP50 + pICln IC50 (µM) ([4]; competition with labeled pICln, supplementary CSV): nb
increase of the average melting temperature [5]: No stabilization
TSA Average Tm (°C) [5]: 49.32 ± 0.18 °C

Compound: CC(=O)N[C@H](C(=O)N1CCC[C@H]1C(=O)N[C@@H]1CCCCC[C@@H](C(=O)N[C@@H](CC(=O)O)C(=O)N[C@@H](C)C(=O)N[C@@H](CC(C(=O)O)C(=O)O)C(=O)N[C@@H](CCCCNC(=O)COCCOCCOCCN=[N+]=[N-])C(N)=O)NC(=O)[C@H](Cc2ccc([N+](=O)[O-])cc2)NC(=O)[C@H](CCC(N)=O)NC1=O)C(C)C [Compound 55]
enrichment of the PRMT5-MEP50 complex by immobilized peptide [8]: successfully enriched the PRMT5-MEP50 complex

Compound: CC(=O)N1CCC[C@H]1C(=O)N[C@H](C(=O)N[C@@H]1CCCCC[C@@H](C(=O)N[C@@H](Cc2ccc([N+](=O)[O-])cc2)C(=O)N[C@@H](CC(C(=O)O)C(=O)O)C(=O)N[C@@H](CCC(N)=O)C(=O)N[C@@H](CCCCNC(=O)COCCOCCOCCN=[N+]=[N-])C(N)=O)NC(=O)[C@H](CC(=O)O)NC(=O)[C@H](C)NC1=O)C(C)C [Compound 56]
enrichment of the PRMT5-MEP50 complex by immobilized peptide [8]: did not show significant interaction

Compound: Ac-VPGQFDDAD-NH2 [Compound 31]
half-life ([3]; U2OS cell lysate, 37 °C, 600 μM peptide): 4.4 h
half-life ([3]; cells or culture medium, supplementary CSV, read-out: Half-llife in Lysate (converted)): 4.32 h

Continued, values first:

Kd [10]: > 1 µM
Compound: CC(=O)N[C@H](C(=O)N1CCC[C@H]1C(=O)NCC(=O)N[C@@H](CCC(N)=O)C(=O)N[C@@H](Cc1ccccc1)C(=O)N[C@@H](CC(=O)O)C(=O)N[C@@H](CC(=O)O)C(=O)N[C@@H](C)C(=O)N[C@@H](CCc1ccccc1)C(=O)N[C@@H](CCCCNC(=S)Nc1ccc2c(c1)C(=O)OC21c2ccc(O)cc2Oc2cc(O)ccc21)C(N)=O)C(C)C [Compound S34] (Ac-VPGQFDDA[hPhe]K(FITC)-NH2)

effect on direct methylation activity of PRMT5 [6]: is able to inhibit
Compound: O=C(NC[C@H](O)CN1CCc2ccccc2C1)c1cc(NC2COC2)ncn1 [EPZ015666, reference compound]
